“Also recorded” adds a separate entry of the source.
Experiments:
male C57BL/6 mice [1] = experiment: Open field test (OFT), locomotor activity; assay type: in vivo; parameters: key to OFT: ↓ = decrease; ↑ = increase; neg = negative; pos = positive; ns = not statistically significant; conditions: for OFT: summary of effect on overall locomotor activity, doses tested IP, mice; for Locomotor activity in the open field, statistical comparison between groups: various doses IP, 30 min period, one-way ANOVA with Tukey's test, diazepam positive control
Method: (§1) Methods. The open field test (OFT) was conducted by placing a mouse in a gray chamber 40×40 cm of 30 cm height and allowed to explore at will for 30 minutes. A digital camera positioned above the chamber recorded behavior. Animals that spend more time in the center (open area) compared to along the walls (thigmotaxis) are deemed less anxious. The open field apparatus was cleaned with Peroxigard wipes after each use.
(§2) Statistical analysis. Data were analyzed using a one-way ANOVA with drug dose as the primary factor. Post-hoc multiple comparison analysis was performed following significant main effects using Tukey's multiple comparisons test (GraphPad Prism 9.2.0). Statistical significance was set at P<0.05.
(§3) Results. A total of 170 male C57BL/6 mice were used for this study (see TABLE 3.). One mouse in the diazepam group died of unknown causes. Another mouse developed a skin condition in the aeruginascin (1.0 mg/kg) group and was excluded from the FST test. All other test groups consisted of N=10 per group. Statistical comparisons are noted in each figure legend.

male C57BL/6 mice [2] = experiment: Tail suspension test (TST); assay type: in vivo; conditions: for TST: summary of effect on behavior, doses tested IP, mice; for Tail suspension test activity (time immobile), statistical comparison between groups: various doses IP, 6 minutes, one-way ANOVA with Tukey's test, ketamine positive control
Method: (§4) The tail-suspension test (TST) is a model of depression and has been used to screen prospective antidepressant compounds. It involves suspending mice above the ground by their tails with tape for a predetermined time. A 17 cm piece of tape was taped to the tail (2 cm of the 17 cm) of each mouse and then attached to a metal shelf for 6 minutes. Each mouse was digitally recorded and data analyzed using specialized software with particular focus on time immobile. After the trial, tape was removed and mice returned to their home cage.
as §2, §3

male C57BL/6 mice [3] = experiment: Open field test (OFT), time in center zone; assay type: in vivo; parameters: key to OFT (center time): ↓ = decrease; ↑ = increase; neg = negative; pos = positive; ns = not statistically significant; conditions: for OFT (center time): summary of effect on behavior, doses tested IP; for Time in the center zone of the open field chamber, statistical comparison between groups: various doses IP, 30 min period, one-way ANOVA with Tukey's test, diazepam positive control
Method: as §1, §2, §3

male C57BL/6 mice [4] = experiment: Animal models of anxiety and depression in mice, overall (OFT, EPM, TST, FST); assay type: in vivo; conditions: IP, FST taken together
Method: Summary. The goal of the present project was to assess psilocybin metabolites in animal models of anxiety and depression in mice. Specifically, baeocystin (0.3 mg/kg-30 mg/kg), norbaeocystin (0.3-3.0 mg/kg), aeruginascin (0.3-3.0 mg/kg) and norpsilocin (0.3-3.0 mg/kg) were tested in the open field test (OFT), elevated plus maze (EPM), tail suspension test (TST) and forced swim test (FST). Overall, most compounds were ineffective and/or increased negative behaviors.
as §1
(§5) The elevated plus maze (EPM) is a behavioral assay that measures anxiety in rodents. The apparatus is composed of open and closed arms arranged in a “plus” measuring, 35 cm arm length; 5 cm arm width; 20 cm wall height and stands 61 cm height. Each mouse was placed on the maze within the center area facing towards an open arm and allowed to explore the EPM for 5 minutes. The experimenter observed the mouse from outside the test room through an observational window. Behavior was recorded via a digital camera mounted above the maze. The apparatus was cleaned with Peroxigard wipes after each trial.
as §4
The forced swim test is a classic behavioral assay to test for depressive behavior such as immobility. The apparatus is composed of a Plexiglas cylinder measuring (20 cm diameter, 45 cm height) that is filled with water maintained at room temperature (23-25 C). During testing, mice were placed into the water by the nape of the neck facing the wall and released and behavior recorded via a digital camera for 6 minutes. After the test, mice were dried off with a towel and placed in their home cage in which half is heated by a heating pad placed underneath the cage. Fecal matter was removed after every test. Water was changed after 10 mice were run in each cylinder. […]
Statistical analysis. Data were analyzed using a one-way ANOVA with drug dose as the primary factor. […]

male C57BL/6 mice [5] = experiment: Elevated plus maze (EPM), time on open arms; assay type: in vivo; parameters: key to EPM: ↓ = decrease; ↑ = increase; neg = negative; pos = positive; ns = not statistically significant; conditions: for EPM: summary of effect on behavior (time on open arms), doses tested IP; for Time spent on the open arms of the EPM, statistical comparison between groups: various doses IP, 5 minutes, one-way ANOVA with Tukey's test, diazepam positive control
Method: as §5, §2, §3

male C57BL/6 mice [6] = experiment: Forced swim test (FST); assay type: in vivo; parameters: key to FST: ↓ = decrease; ↑ = increase; neg = negative; pos = positive; ns = not statistically significant; conditions: for FST: summary of effect on behavior, doses tested IP, mice; for Forced swim test activity, statistical comparison between groups: various doses IP, 6 minutes, one-way ANOVA with Tukey's test, ketamine positive control
Method: The forced swim test is a classic behavioral assay to test for depressive behavior such as immobility. The apparatus is composed of a Plexiglas cylinder measuring (20 cm diameter, 45 cm height) that is filled with water maintained at room temperature (23-25 C). During testing, mice were placed into the water by the nape of the neck facing the wall and released and behavior recorded via a digital camera for 6 minutes. After the test, mice were dried off with a towel and placed in their home cage in which half is heated by a heating pad placed underneath the cage. Fecal matter was removed after every test. Water was changed after 10 mice were run in each cylinder. After the completion of the experiment, water was drained and the cylinder cleaned with Peroxigard wipes.
as §2, §3

[7] = cited from earlier work

Which OFT (male C57BL/6 mice [1]) does the source give for CNCCc1c[nH]c2cccc(O)c12 [Norpsilocin] here?
Its OFT is “↓ (neg)”.

And the “Locomotor activity in the open field, statistical comparison between groups” value (shortened to “Locomotor activity in the open field”) (male C57BL/6 mice [1])?
The value was “significant differences between diazepam and norpsilocin 1.0 and 3.0 mg/kg”.

And the TST (male C57BL/6 mice [2])?
The TST was “↑ (neg)”.

What about the “Tail suspension test activity (time immobile), statistical comparison between groups” value (“Tail suspension test activity” below) (male C57BL/6 mice [2]) of the same compound?
The value was “significant differences between ketamine and all doses of norpsilocin”.

And the “Time spent in the center zone in the OFT” value (male C57BL/6 mice [3]; 3.0 mg/kg, IP, mice)?
Its value is “the only compound that increased time spent in the center zone in the OFT and this effect was highly significant”.

What about the “OFT (center time)” value (male C57BL/6 mice [3]; mice) of the same compound?
Its value is “↑ (pos)”.

What about the “Time in the center zone of the open field chamber, statistical comparison between groups” value (shortened to “Time in the center zone”) (male C57BL/6 mice [3]) of the same compound?
The value was “significantly increased time spent in the center zone of the OFT; also recorded: highly significant differences between the highest dose of norpsilocin and all other groups”.

And the “Overall effect across behavioral tests of anxiety and depression” value (shortened to “Overall effect across behavioral tests”) (male C57BL/6 mice [4])?
The value was “can exert anxiolytic effects in mice using certain behavioral procedures; also recorded: have anxiolytic activity and no harmful psychoactive effects, including no depressive activity”.

What about the EPM (male C57BL/6 mice [5]; mice) of the same compound?
Its EPM is “ns”.

What about the “Time spent on the open arms of the EPM, statistical comparison between groups” value (“Time spent on the open arms of the EPM” below) (male C57BL/6 mice [5]) of the same compound?
The value was “no differences between groups”.

And the FST (male C57BL/6 mice [6])?
Its FST is “ns”.

And the “Forced swim test activity, statistical comparison between groups” value (“Forced swim test activity” below) (male C57BL/6 mice [6])?
The value was “no differences between any groups”.

With CNCCc1c[nH]c2cccc(OP(=O)(O)O)c12 [Baeocystin] as the compound, how does the OFT (male C57BL/6 mice [1]) read?
The OFT was “↓ (neg)”.

What about the “Locomotor activity in the open field” value (male C57BL/6 mice [1]) of the same compound?
Its value is “significant differences between the highest dose of baeocystin and all other groups”.

And the TST (male C57BL/6 mice [2])?
The TST was “↑ (neg)”.

And the “Tail suspension test activity” value (male C57BL/6 mice [2])?
Its value is “significant differences between the two highest doses of baeocystin and other groups”.

What about the “OFT (center time)” value (male C57BL/6 mice [3]; mice) of the same compound?
Its value is “ns”.

And the “Time in the center zone” value (male C57BL/6 mice [3])?
Its value is “no significant difference between groups”.

What about the “Overall effect across behavioral tests” value (male C57BL/6 mice [4]) of the same compound?
Its value is “can exert anxiolytic effects in mice using certain behavioral procedures; also recorded: have anxiolytic activity and no harmful psychoactive effects, including no depressive activity”.

And the “Hallucinogenic effect in a self-administered assay” value ([7]; 4 mg of baeocystin, Gartz research paper)?
The value was “a gentle hallucinogenic experience”.

What about the “Psychoactivity in humans compared with psilocybin” value ([7]; 10 mg of baeocystin, study reported by Gartz) of the same compound?
The value was “about as psychoactive as a similar amount of psilocybin”.

And the “Time spent on the open arms in the EPM” value (male C57BL/6 mice [5]; 10 mg/kg, IP, mice)?
The value was “tended to increase time spent on the open arms however, this did not reach statistical significance”.

What about the “Time spent on the open arm in the EPM” value (male C57BL/6 mice [5]; 30 mg/kg (highest dose), IP, mice) of the same compound?
Its value is “significantly increased time spent on the open arm”.

What about the EPM (male C57BL/6 mice [5]; mice) of the same compound?
Its EPM is “↑ (pos)”.

And the “Time spent on the open arms of the EPM” value (male C57BL/6 mice [5])?
The value was “the highest dose of baeocystine increased time spent on the open arm compared to saline”.

What about the FST (male C57BL/6 mice [6]) of the same compound?
Its FST is “ns”.

What about the “Forced swim test activity” value (male C57BL/6 mice [6]) of the same compound?
The value was “no significant differences between groups”.

Which results are given for C[N+](C)(C)CCc1c[nH]c2cccc(OP(=O)(O)O)c12 [Aeruginascin]?
OFT (male C57BL/6 mice [1]): ↓ (neg); Locomotor activity in the open field, statistical comparison between groups (male C57BL/6 mice [1]): significant difference between aeruginascin 0.3 and 1.0 mg/kg; TST (male C57BL/6 mice [2]): ↑ (neg); Tail suspension test activity (time immobile), statistical comparison between groups (male C57BL/6 mice [2]): significant differences between saline and ketamine and all doses of aeruginascin; OFT (center time) (male C57BL/6 mice [3]; mice): ns; Time in the center zone of the open field chamber, statistical comparison between groups (male C57BL/6 mice [3]): no significant differences between groups; Overall effect across behavioral tests of anxiety and depression (male C57BL/6 mice [4]): either produced no significant effect or a significant negative impact across all behavioral tests; EPM (male C57BL/6 mice [5]; mice): ns; Time spent on the open arms of the EPM, statistical comparison between groups (male C57BL/6 mice [5]): no differences between groups; FST (male C57BL/6 mice [6]): ↑ (neg); Forced swim test activity, statistical comparison between groups (male C57BL/6 mice [6]): significant differences between ketamine and aeruginascin 0.3 and 3.0 mg/kg doses

For NCCc1c[nH]c2cccc(OP(=O)(O)O)c12 [Norbaeocystin], which OFT (male C57BL/6 mice [1]) is on record?
Its OFT is “ns”.

And the “Locomotor activity in the open field” value (male C57BL/6 mice [1])?
Its value is “a trend towards a difference between norbaeocystin 1.0 vs. 3.0 mg/kg”.

What about the TST (male C57BL/6 mice [2]) of the same compound?
Its TST is “↑ (neg)”.

What about the “Tail suspension test activity” value (male C57BL/6 mice [2]) of the same compound?
Its value is “significant differences between saline and ketamine and all doses of norbaeocystin”.

What about the “OFT (center time)” value (male C57BL/6 mice [3]; mice) of the same compound?
The value was “↓ (neg)”.

What about the “Time in the center zone” value (male C57BL/6 mice [3]) of the same compound?
Its value is “significant difference between diazepam and the highest dose of norbeaocystin”.

And the “Overall effect across behavioral tests” value (male C57BL/6 mice [4])?
The value was “either produced no significant effect or a significant negative impact across all behavioral tests”.

What about the EPM (male C57BL/6 mice [5]; mice) of the same compound?
The EPM was “ns”.

What about the “Time spent on the open arms of the EPM” value (male C57BL/6 mice [5]) of the same compound?
Its value is “no differences between groups”.

And the FST (male C57BL/6 mice [6])?
Its FST is “ns”.

What about the “Forced swim test activity” value (male C57BL/6 mice [6]) of the same compound?
The value was “no significant differences between groups”.

Source: patent US20240366638A1, “[…] FOR TREATING PSY[…]” (SYNAPTIVE THERAPEUTICS LLC, priority 2021, published 2024)
